Assay results from patent publication US12178882B2, “Alpha polyglutamated pemetrexed and uses thereof” (L.E.A.F. HOLDINGS GROUP LLC, priority 2016, dated 2024).

Legend:
[1] = biological target: T1, reduced folate carriers (RFCs) (Homo sapiens, UniProt P41440); settings: higher than MTX; cited from earlier work
T1 sequence (P41440 1-591): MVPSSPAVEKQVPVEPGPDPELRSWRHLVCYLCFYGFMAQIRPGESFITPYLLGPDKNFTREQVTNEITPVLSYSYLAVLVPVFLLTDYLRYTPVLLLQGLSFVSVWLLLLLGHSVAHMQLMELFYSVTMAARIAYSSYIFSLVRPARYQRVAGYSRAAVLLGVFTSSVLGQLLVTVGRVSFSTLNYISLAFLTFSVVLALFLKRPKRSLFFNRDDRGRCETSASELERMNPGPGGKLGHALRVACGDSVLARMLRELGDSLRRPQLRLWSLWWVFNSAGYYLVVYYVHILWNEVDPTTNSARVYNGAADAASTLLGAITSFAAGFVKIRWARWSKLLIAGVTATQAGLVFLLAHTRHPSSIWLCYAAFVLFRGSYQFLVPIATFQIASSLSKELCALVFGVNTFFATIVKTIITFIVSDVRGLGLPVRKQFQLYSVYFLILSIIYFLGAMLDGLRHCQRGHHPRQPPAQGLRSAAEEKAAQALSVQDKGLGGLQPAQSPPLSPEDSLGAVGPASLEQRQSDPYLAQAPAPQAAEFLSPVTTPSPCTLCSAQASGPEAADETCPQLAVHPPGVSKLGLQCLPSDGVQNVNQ

AML12 liver cells = test: Toxicity to AML12 liver cells; type: cell-based; settings: all doses studied (16-128 nM), 48 hours, FIG. 16
Excerpt: (§1) Methodologies used for cell line AML12 (non-cancerous liver cells) and CCD841 (non-cancerous colon epithelial cells) are similar to the methods used for cancer cells.

[2] = test system: CCD841 colon epithelium cells; test: Toxicity to CCD841 colon epithelium cells; type: cell-based; settings: all concentrations tested (16-128 nM), 48 hours, FIG. 17
Excerpt: as §1

Structure (SMILES): Nc1nc2[nH]cc(CCc3ccc(C(=O)N[C@@H](CCC(=O)O)C(=O)O)cc3)c2c(=O)[nH]1 [pemetrexed]
- Affinity of RFCs for PMX relative to that for MTX [1]: 2 fold
- Reduction in the AML12 liver cell counts (AML12 liver cells): approximately 40%
- Decrease in the number of CCD841 colon epithelium cells [2]: ≥ 50%
